# Measured values reported in US20190331687A1, “CANCER TREATMENT” (PFIZER INC., priority 2014, published 2019).
# Test system: metastatic renal cell carcinoma (mRCC)
# Experiment: Study A4061032 (AXIS phase 3 trial): PFS and OS of axitinib-treated mRCC patients by tumor CD68 IHC stratum (median cut off)
# Type: in vivo, human
# Details: for median OS / median progression free survival (PFS): regardless of prior treatment
# Description: Study A4061032 (ClinicalTrials.gov Identifier: NCT00678392) was a phase 3 registrational trial entitled “Axitinib (AG-013736) as second line therapy for metastatic renal cell cancer: Axis trial”. […] A total of 650 patients were planned to be enrolled, and 723 subjects were eventually enrolled in the study.
# As described in further detail in the Examples, formalin-fixed paraffin embedded (FFPE) tumor samples were collected from patients who participated in A4061032, and who provided specific consent for collection of tumor sample. Tumor myeloid (cluster of differentiation 68 “CD68”) or lymphocyte (cluster of differentiation 3 “CD3”) infiltration was assessed by immunohistochemistry (IHC) in tumor samples from 52 axitinib-treated patients. The aim was to investigate the potential association of these biomarkers with efficacy, consistent with the hypothesis that myeloid infiltration confers resistance to anti-angiogenic agents targeting the VEGF-VEGFR2 pathway (see Shojaei et al. (2007) Nat. Biotechnol. 25(8):911-920; and Lin et al. (2010) Eur. J. Cancer Suppl. 8(7): 191).
# The evaluation of CD3 and CD68 was performed by image analysis from a whole slide scan. The region of interest was circled, and an image analysis algorithm was run. The percentage of positive cells (number of positive cells/total number of cells) and the density of positive cells (e.g. number of positive cells/mm^2) was measured. Some patients donated FFPE blocks, and some donated slides cut from blocks. Samples from all patients were analyzed, whether they were provided as slides or blocks.
# This study was a 2-arm, randomized, open-label, multi-center phase 3 study of axitinib versus sorafenib in patients with metastatic renal cell carcinoma (mRCC), after failure following one prior systematic first-line regimen containing one or more of the following agents: sunitinib, bevacizumab+IFN α, temsirolimus, or cytokine(s). Overall, 723 patients with mRCC were randomized and enrolled in this study, among which 52 axitinib-treated patients were evaluable for immunohistochemistry (IHC) analysis; further, 33 of the 52 patients were previously treated with Sutent®.
# All 52 patients were evaluable for both CD3 and CD68. Of the 52 CD3 and CD68 evaluable patients, 26 donated formalin-fixed paraffin embedded (FFPE) tumor blocks, and 26 donated slides for analysis. Mosaic Laboratories provided FFPE material representing human normal and human cancer. Specimens were procured under an IRB-reviewed protocol (MOS001) that allows for use of remnant, de-identified, or anonymized human samples for in vitro analysis under the guidelines defining ‘Exemption from Human Subject Research’ as defined by the Office of Human Research Protection. The CD68 mouse monoclonal KP1 antibody (Catalog# M0814, Lot#46406, Expiration date: September 2011) was purchased from Dako (Carpinteria, Calif., United States) and stored at 2-8° C. in accordance with accompanying documentation. The mouse IgG isotype control antibody (Lot#37211, Expiration date: July 2010) was purchased from Dako and stored at 2-8° C. in accordance with accompanying documentation. IHC was performed in accordance with Mosaic Laboratories' SOPs. The CD68 IHC assay was designed and validated to be compatible with CLIA guidelines for “homebrew” class I test validation.
# For IHC biomarker analysis, the Biomarker Analysis Set was used, which included all patients who received at least one dose of study treatment. The following efficacy endpoints were analyzed: PFS, OS, and objective response rate (ORR). Summary statistics were provided for percent and density of positive cells by response category (complete response [CR]+partial response [PR] versus stable disease [SD]+progressive disease [PD]) for each marker). The Wilcoxon Rank Sum test was performed to test for difference between response categories. Fisher's exact test was used to test for association between response category and biomarker stratum using median value as cut off point.
# [1] = patients with <median CD68 cell density (cut off 0.08 cells/mm^2)
# [2] = patients with <median CD68 percentage of positive cells (cut off 5.21%)
# [3] = patients with >=median CD68 cell density (cut off 0.08 cells/mm^2)
# [4] = patients with >=median CD68 percentage of positive cells (cut off 5.21%)
smiles,measurement,setting,value
"CNC(=O)c1ccccc1Sc1ccc2c(/C=C/c3ccccn3)n[nH]c2c1 [axitinib, 6-[2-(methylcarbamoyl)phenylsulfanyl]-3-E-[2-(pyridin-2-yl)ethenyl]indazole]",hazard ratio (HR) for OS,">=median vs <median CD68 values, all cases, not statistically significant",> 0.6
same,hazard ratio [HR] for PFS,">=median vs <median CD68 values, logrank p-value<=0.01, all patients regardless of prior treatment",0.42
same,median OS,[1],17.8 months
same,median progression free survival (PFS),[1],3.8 months
same,median OS,[2],21.8 months
same,median progression free survival (PFS),[2],3.7 months
same,median OS,[3],22.6 months
same,median progression free survival (PFS),[3],12.0 months
same,median OS,[4],20.0 months
same,median progression free survival (PFS),[4],12.0 months
